The IC50 is the midpoint of a concentration-inhibition curve.

This note sets out measurements from BindingDB's records for doi:10.1021/acs.jmedchem.7b00306 (Bayer, 2017).

This assay concerns the target T1, Bromodomain-containing protein 1 (Homo sapiens, UniProt O95696).
T1 sequence (O95696 whole entry): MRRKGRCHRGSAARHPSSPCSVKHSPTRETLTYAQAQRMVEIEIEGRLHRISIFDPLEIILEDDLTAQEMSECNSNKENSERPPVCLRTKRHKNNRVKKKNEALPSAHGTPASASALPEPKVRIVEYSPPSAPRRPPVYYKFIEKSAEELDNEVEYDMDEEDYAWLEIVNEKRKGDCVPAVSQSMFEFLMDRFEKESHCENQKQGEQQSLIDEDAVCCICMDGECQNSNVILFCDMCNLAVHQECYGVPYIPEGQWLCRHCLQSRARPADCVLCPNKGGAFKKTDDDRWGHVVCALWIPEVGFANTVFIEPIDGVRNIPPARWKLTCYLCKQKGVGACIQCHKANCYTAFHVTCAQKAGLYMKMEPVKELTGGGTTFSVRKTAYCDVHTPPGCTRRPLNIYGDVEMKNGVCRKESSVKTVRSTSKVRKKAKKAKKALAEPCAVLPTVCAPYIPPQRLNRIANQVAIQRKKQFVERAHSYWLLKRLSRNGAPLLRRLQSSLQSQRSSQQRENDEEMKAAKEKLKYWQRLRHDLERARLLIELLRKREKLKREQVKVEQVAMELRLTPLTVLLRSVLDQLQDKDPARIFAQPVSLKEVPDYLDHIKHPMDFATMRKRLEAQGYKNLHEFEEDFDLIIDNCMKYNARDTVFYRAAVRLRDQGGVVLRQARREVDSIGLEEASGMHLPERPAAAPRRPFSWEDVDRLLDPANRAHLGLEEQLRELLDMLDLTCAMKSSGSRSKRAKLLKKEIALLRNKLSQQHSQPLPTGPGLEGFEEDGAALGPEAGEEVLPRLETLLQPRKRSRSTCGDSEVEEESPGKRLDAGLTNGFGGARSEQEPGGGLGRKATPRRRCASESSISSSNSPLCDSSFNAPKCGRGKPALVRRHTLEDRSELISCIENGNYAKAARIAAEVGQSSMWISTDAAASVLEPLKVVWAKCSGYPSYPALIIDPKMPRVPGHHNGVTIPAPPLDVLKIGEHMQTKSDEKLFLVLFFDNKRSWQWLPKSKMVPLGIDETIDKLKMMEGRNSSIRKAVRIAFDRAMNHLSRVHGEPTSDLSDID
As to the kind of experiment: Alphascreen assay. Binding to BRD1A (domain start/stop: E556-A688) by alphascreen assay. (In Alpha technology, singlet oxygen from a donor bead excites a nearby acceptor bead.)

As for `COc1cc2c(cc1NS(=O)(=O)c1ccc(Br)cc1C)n(C)c(=O)n2C` [OF-1], the IC50 stood at 1.68 µM. This lies in the single-digit micromolar range.
